Reference: ChEMBL document CHEMBL1201862, “PubChem BioAssay data set” (2004)
Active and inactive are the calls of the source. For most assays here, no stated cut-off is given here; in the data, actives have a measured EC50 and inactives only a lower limit.

How the values were obtained:
[1] = target: FAD-linked sulfhydryl oxidase ALR (Homo sapiens, UniProt P55789); assay: inhibitors of human ALR sulfhydryl oxidase, dose response, biochemical, H2O2 detection, luminescence, cherry-pick (AID 493248)
[2] = target: T1, Rac GTPase-activating protein 1 (Homo sapiens, UniProt Q9H0H5); assay: MgcRacGAP GTPase-activating activity inhibitors, confirmation, biochemical, ADP Hunter fluorescence, primary and confirmatory (AID 624330); type: functional
T1 sequence (Q9H0H5 whole entry): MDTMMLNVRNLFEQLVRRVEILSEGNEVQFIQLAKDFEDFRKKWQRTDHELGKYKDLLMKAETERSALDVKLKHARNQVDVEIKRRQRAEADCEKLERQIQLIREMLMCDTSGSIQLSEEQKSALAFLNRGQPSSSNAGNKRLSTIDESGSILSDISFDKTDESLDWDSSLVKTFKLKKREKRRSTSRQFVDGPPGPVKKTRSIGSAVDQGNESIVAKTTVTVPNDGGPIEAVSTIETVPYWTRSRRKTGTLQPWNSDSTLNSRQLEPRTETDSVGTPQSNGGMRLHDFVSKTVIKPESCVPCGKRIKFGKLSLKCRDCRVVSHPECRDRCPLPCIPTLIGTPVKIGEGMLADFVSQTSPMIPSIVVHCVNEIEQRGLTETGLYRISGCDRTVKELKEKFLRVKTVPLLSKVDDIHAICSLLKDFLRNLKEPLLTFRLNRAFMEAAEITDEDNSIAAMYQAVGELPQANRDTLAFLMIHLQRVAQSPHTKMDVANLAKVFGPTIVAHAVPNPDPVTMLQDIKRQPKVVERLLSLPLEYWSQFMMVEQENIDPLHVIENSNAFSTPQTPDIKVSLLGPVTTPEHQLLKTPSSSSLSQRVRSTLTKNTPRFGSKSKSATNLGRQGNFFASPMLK

[3] = target: T2, Heat shock factor protein 1 (Mus musculus, UniProt P38532); assay: inhibition of MG132-induced HSE-luciferase signal, confirmation, cell-based, NIH3T3, luminescence, dose retest (AID 2382); type: functional;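 further: NIH3T3 fibroblasts with HSF1-driven luciferase reporter stressed by proteasome inhibitor MG132; luminescence from HSF1-driven luciferase expression after 8 hours of MG132 stress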
T2 sequence (P38532 whole entry): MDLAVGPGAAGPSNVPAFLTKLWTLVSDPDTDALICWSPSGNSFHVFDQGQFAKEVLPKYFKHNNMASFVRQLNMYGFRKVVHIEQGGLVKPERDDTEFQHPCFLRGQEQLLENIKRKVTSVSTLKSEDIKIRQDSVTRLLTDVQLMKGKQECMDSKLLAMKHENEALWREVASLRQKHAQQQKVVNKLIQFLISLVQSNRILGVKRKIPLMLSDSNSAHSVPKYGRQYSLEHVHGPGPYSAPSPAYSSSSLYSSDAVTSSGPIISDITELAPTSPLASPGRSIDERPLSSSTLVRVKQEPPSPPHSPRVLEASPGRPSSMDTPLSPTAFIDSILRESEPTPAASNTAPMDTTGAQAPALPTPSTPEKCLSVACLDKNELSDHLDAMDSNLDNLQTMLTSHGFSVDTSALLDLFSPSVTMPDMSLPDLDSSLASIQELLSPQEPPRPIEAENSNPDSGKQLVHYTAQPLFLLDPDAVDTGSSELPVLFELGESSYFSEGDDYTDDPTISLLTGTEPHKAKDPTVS

[4] = Luminescence Cell-Based Dose Response HTS to Identify Activators of Luciferase Translation or Activity in H4 […] Cells. [Related pubchem assays: 1829 (Project Summary), 1814 (Primary HTS)]; type: functional
H4 = assay: Luminescence Cell-Based Dose Response HTS to Identify Activators of 5'UTR Stem-Loop Driven Prion Protein mRNA Translation in H4 Neuroglioblastoma Cells. [Related pubchem assays: 1829 (Project Summary), 1814 (Primary HTS)]; type: functional; details: Homo sapiens
[5] = inhibitors of SNCA 5'UTR-driven reporter translation, confirmation, H4 neuroglioma cells, luminescence (AID 1988); type: functional, cell-based
[6] = inhibitors of firefly luciferase expression or activity, dose response, H4 neuroglioma cells, luminescence (AID 1990); type: functional, cell-based
[7] = Luminescence Cell-Based Dose Response HTS to Identify Inhibitors of 5'UTR Stem-Loop Driven Prion Protein mRNA Translation in H4 Neuroglioblastoma Cells. [Related pubchem assays: 1827 (Project Summary), 1813 (Primary HTS)]; type: functional
[8] = target: T3, Corticotropin-releasing factor receptor 2/Corticotropin-releasing factor-binding protein (Homo sapiens, UniProt P24387+Q13324); assay: activators of CRF receptor 2 with binding protein – uHTS hits, confirmation (AID 602473); type: functional; details: read-out: EC50_Mean
T3 sequence (Q13324 whole entry): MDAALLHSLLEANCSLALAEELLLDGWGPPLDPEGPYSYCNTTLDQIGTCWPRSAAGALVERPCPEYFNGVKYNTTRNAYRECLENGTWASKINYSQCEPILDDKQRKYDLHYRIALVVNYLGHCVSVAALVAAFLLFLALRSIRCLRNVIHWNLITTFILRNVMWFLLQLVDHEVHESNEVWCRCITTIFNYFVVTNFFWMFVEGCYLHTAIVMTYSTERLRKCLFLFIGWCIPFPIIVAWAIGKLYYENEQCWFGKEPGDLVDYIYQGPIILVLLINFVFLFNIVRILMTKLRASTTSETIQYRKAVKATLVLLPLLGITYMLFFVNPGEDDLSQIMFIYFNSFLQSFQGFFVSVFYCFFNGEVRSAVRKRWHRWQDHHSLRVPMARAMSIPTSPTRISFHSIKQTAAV
T3 sequence (P24387 whole entry): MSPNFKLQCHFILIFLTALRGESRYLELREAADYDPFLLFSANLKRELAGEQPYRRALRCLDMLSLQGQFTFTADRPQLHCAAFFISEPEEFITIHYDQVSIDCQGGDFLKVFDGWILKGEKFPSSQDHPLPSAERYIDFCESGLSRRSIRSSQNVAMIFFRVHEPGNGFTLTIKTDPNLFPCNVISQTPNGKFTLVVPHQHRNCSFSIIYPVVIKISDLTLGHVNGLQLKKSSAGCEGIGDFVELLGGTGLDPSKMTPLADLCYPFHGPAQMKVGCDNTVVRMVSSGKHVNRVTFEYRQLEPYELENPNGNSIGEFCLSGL

[9] = target: T3, Corticotropin-releasing factor receptor 2/Corticotropin-releasing factor-binding protein; assay: Dose Response confirmation of uHTS hits for small molecule antagonists of the CRF-binding protein and CRF-R2 receptor complex.; type: functional; details: read-out: IC50_Mean
[10] = cytotoxicity toward NIH3T3 fibroblasts, dose response, counter-screen, cell-based, ATP luminescence, mouse fibroblasts (AID 2010); type: functional;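 further: cells exposed to compound for about 90 hours before reading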
[11] = inhibitors of intracellular T. cruzi replication, confirmation, NIH3T3 host cells, beta-gal luminescence (AID 2044); type: functional, cell-based;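 further: intracellular parasites grown in NIH/3T3 mouse fibroblasts as host cells; luminescent beta-galactosidase reporter signal from transgenic T. cruzi replicating inside host cells; inhibitors lower the luminescence signal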
[12] = Luminescence Cell-Based Dose Retest to Confirm Inhibitors of Cancer Stem Cells. [Related pubchem assays (depositor defined):AID2717, AID2721]; type: functional; details: Homo sapiens

Sequence of FAD-linked sulfhydryl oxidase ALR (P55789 whole entry): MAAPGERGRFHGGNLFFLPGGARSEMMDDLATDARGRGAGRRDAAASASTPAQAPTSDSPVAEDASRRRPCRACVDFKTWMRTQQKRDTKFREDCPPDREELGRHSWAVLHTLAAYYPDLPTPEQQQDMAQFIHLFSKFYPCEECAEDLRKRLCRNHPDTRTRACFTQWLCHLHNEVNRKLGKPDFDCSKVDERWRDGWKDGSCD

With CN(C)c1cccc(C(=O)NC2CCCCCC2)c1 the AC50 [1] was 8.08 µM (active).
With O=C(Cc1coc2cc(O)ccc12)N1CCN(S(=O)(=O)c2ccc(Br)cc2)CC1 the IC50 [2] was 21.6 µM (active).
With COc1ccc(/C=C2\C(=O)ON=C2c2ccccc2)cc1 the AC50 [1] was 66.4 µM (active).
In the case of N#CCCn1cc(C(=O)Nc2ccc([N+](=O)[O-])cc2)c(-c2ccccc2)n1, the EC50 [3] is reported as > 195 µM (not active).
For CC(C)(C)NC(=O)COC(=O)c1ccccc1Nc1ccc(SC(F)F)cc1, the EC50 [4] was 23.9 µM (active) and the EC50 (H4) was 12.8 µM (active).
With CCc1c(C)sc(NC(=O)CSc2nc3c(c(C(F)(F)F)n2)CCc2ccccc2-3)c1C#N the EC50 [5] was 18.8 µM (active), the EC50 [6] was > 120 µM (not active) and the EC50 [7] was > 120 µM (not active).
For CC(C(=O)NC(=O)NC1CCCCC1)N1CCN(c2ccc(O)cc2)CC1 (stereo not given), the IC50 [2] was 55.5 µM (active).
In the case of Cc1cccc(Oc2ccc3c(c2)cc(C(=O)O)n3C)c1, the AC50 [1] is reported as 0.211 µM (active).
For COc1ccc(/C=N/NC(=O)c2cc[n+]([O-])cc2)cc1O, the IC50 [2] was 38.2 µM (active).
With [O-][n+]1onc2c3c4c(n(O)c3ccc21)CCCC4 the AC50 [1] was 0.497 µM (active).
For CCOC(=O)c1c(CN(C)C)n(C)c2ccc(OC(C)=O)cc12, the EC50 [3] was > 195 µM (not active).
In the case of O=C(NNC(=O)c1oc2ccccc2c1-n1cccc1)c1ccco1, the EC50 [8] is reported as > 53 µM (inactive) and the IC50 [9] is reported as > 47.1 µM (inactive).
For O=C1NC(=O)C(CCc2ccncc2)(Cc2cccc(Cl)c2Cl)C(=O)N1c1ccc(Br)cc1 (stereo not given), the EC50 [5] was 13.9 µM (active), the EC50 [6] was 13.2 µM (active) and the EC50 [7] was 18.9 µM (active).
With Cc1sc2ncnc(N3CCC(C(=O)N(C)CC(=O)Nc4ccc(Cl)c(C(F)(F)F)c4)CC3)c2c1C the EC50 [5] was 10.3 µM (active), the EC50 [6] was 7.86 µM (active) and the EC50 [7] was 13 µM (active). The EC50 [10] was > 60 µM (not active), the EC50 [11] was 2.73 µM (active) and the AC50 [12] was 3.41 µM (active).
For COc1ccc(C2SCC(=O)N2c2ccc(F)cc2)cc1 (stereo not given), the AC50 [1] was 0.049 µM (active).
For O=C(C1CCCN(S(=O)(=O)c2c[nH]cn2)C1)N1CCN(c2ccc(Cl)cc2)CC1 (stereo not given), the AC50 [1] was > 100 µM (inactive).
In the case of Cc1ccc(OCCC(=O)O)cc1, the EC50 [8] is reported as > 53 µM (inactive) and the IC50 [9] is reported as > 47.1 µM (inactive).
For O=C(COC(=O)c1cc2ccccc2cc1O)NC1CCCCC1, the EC50 [8] was > 53 µM (inactive) and the IC50 [9] was > 47.1 µM (inactive).
With O=S(=O)(Nc1ccncc1)c1ccc(Cl)cc1 the EC50 [3] was > 195 µM (not active).
In the case of Nc1[nH]cnc2nc(SCCOc3ccc(Cl)cc3)nc1-2, the EC50 [3] is reported as > 195 µM (not active).
In the case of CC(C)(C)OC(=O)N1CCN(c2ccc(CNC(=O)c3ccc(Cl)cc3)cc2)CC1, the EC50 [8] is reported as > 53 µM (inactive) and the IC50 [9] is reported as > 47.1 µM (inactive).
